# Source: patent publication US20110009435A1, “HETERO BICYCLIC CARBOXAMIDE DERIVATIVES AND THEIR PHARMACEUTICAL USE AND COMPOSITIONS” (Pfizer, Inc., priority 2007, published 2011)
# How the values were obtained:
# Format in all cases: biochemical
# [1] = molecular target: T1, catalytic domain of human recombinant MMP-3 (Homo sapiens, UniProt P08254); assay: In vitro MMP inhibition assay, MMP-3 catalytic domain (fluorogenic peptide substrate cleavage, Ki); details: human MMP-3, catalytic domain (CD); read-out: hMMP Ki 03/CD
# T1 construct: made in house
# Procedure: (§1) Matrix Metalloproteinase inhibitor compounds were analyzed in in vitro MMP Inhibition assays to determine their ability to inhibit the MMP cleavage of peptide substrates. Inhibition constants (Ki) were calculated from the assayed compound-MMP interactions.
# (§2) Human recombinant MMP-1, MMP-2, MMP-3, MMP-7, MMP-9, MMP-12, MMP-13, MMP-14 and MMP-15 were used in these assays. The enzymes are prepared following known laboratory procedures. Protocols for the preparation and use of these enzymes are available in the scientific literature. See, e.g., Enzyme Nomenclature (Academic Press, San Diego, Calif., 1992) and the citations therein. See also Frije et al., J. Biol. Chem., 26(24), 16766-73 (1994).
# The catalytic domain MMP-3 cDNA may be used to express the catalytic domain enzyme in E. coli inclusion bodies. Then the enzyme is solubilized in urea, purified on a preparative […] reverse phase HPLC column, and refolded in the presence of zinc acetate and purified for use.
# The fluorogenic, methoxycoumarin-containing polypeptide substrate Mca-Arg-Pro-Lys-Pro-Val-Glu-Nva-Trp-Arg-Lys(Dnp)-NH2 (Bachem catalog number M-2110) was used as the MMP substrate in the MMP inhibition assays for catalytic domain of human recombinant MMP-3 (which refers to the catalytic domain of stromelysin). Here, “MCA” is 7-methoxycoumarin-4-yl acetyl and “Dpa” is 3-(2,4-dinitrophenyl)-L-2,3-di-aminopropionyl group. In the absence of MMP inhibitory activity, the substrate is cleaved at the Gly-Leu peptide bond. The cleavage separates the highly fluorogenic peptide from the 2,4-dinitrophenyl quencher, resulting in an increase of fluorescent intensity.
# For the human MMP-3 assay, dilutions of the inhibitors (or salts thereof) were prepared in 100% DMSO. The stock solutions were diluted in Buffer B (50 mM N-morpholinoethane sulfonate (“MES”), 100 mM NaCl, 10 mM CaCl2, 0.005% polyoxyethylene 23 lauryl ether, pH 6.0)) to obtain solutions with different compound concentrations, i.e., assay solutions with different concentrations of the assayed MMP inhibitory compound in 1% DMSO. The experiment controls contained the same amount of Buffer B/DMSO as the assayed sample, but contained no inhibitor.
# (§3) To determine Ki, the inhibitor samples are incubated at room temperature for 1 hr in the presence of enzyme and then 4 μM of appropriate MMP substrate was added, and samples were analyzed on a Tecan SpectraFlour Plus plate reader. The excitation wavelength is 330 nm, and the emission (fluorescence) wavelength is 420 nm. In the absence of MMP inhibitory activity, the substrate is cleaved at the Gly-Leu bond resulting in an increase of relative fluorescence. Inhibition is observed as a reduced rate of increase in relative fluorescence.
# (§4) The inhibitors are analyzed using a single low enzyme concentration with a single substrate concentration fixed at or below the Km. This protocol is a modification of method by Knight et al., FEBS Lett., 296(3), 263-266 (1992). Apparent inhibitory constants are determined by non-linear regression of reaction velocity as a function of inhibitor and enzyme concentration using Morrison's equation, as described by Kuzmic, Anal. Biochem. 286, 45-50 (2000). Modifications were made in the non-linear regression method to allow a common control reaction rate and effective enzyme concentration to be shared between all dose-response relationships on a given assay plate. Since the substrate concentration was chosen to be at or below the Km, the apparent Ki's from this analysis were reported as Ki's without correction for the influence of substrate.
# Human recombinant MMP-12 = molecular target: T2, Human recombinant MMP-12 (Homo sapiens, UniProt P39900); assay: In vitro MMP inhibition assay, MMP-12 catalytic domain (fluorogenic peptide substrate cleavage, Ki); details: human MMP-12, catalytic domain (CD); read-out: hMMP Ki 12/CD
# T2 construct: The catalytic domain of MMP-12 and MMP-15 enzymes were purchased commercially for these assays; purchased
# Procedure: as §1, §2
# (§5) The catalytic domain of MMP-12 and MMP-15 enzymes were purchased commercially for these assays.
# (§6) The fluorogenic, methoxycoumarin-containing polypeptide substrate MCA-ArgProLeuGlyLeuDpaAlaArgGluArgNH2 was used as the MMP substrate in the MMP inhibition assays for human recombinant MMP-1, MMP-2, MMP-7, MMP-9, MMP-12, MMP-13, MMP-14 and MMP-15. Here, “MCA” is 7-methoxycoumarin-4-yl acetyl and “Dpa” is 3-(2,4-dinitrophenyl)-L-2,3-di-aminopropionyl group. In the absence of MMP inhibitory activity, the substrate is cleaved at the Gly-Leu peptide bond. The cleavage separates the highly fluorogenic peptide from the 2,4-dinitrophenyl quencher, resulting in an increase of fluorescent intensity.
# (§7) For the human MMP-1, MMP-2, MMP-7, MMP-9, MMP-12, MMP-13, MMP-14 and MMP-15 assays, dilutions of the inhibitors (or salts thereof) were prepared in 100% dimethyl sulfoxide (DMSO). The stock solutions were diluted in Buffer A (100 mM Tris-HCl, 100 mM NaCl, 10 mM CaCl2, 0.005% polyoxyethylene 23 lauryl ether, pH 7.5) to obtain solutions with different compound concentrations, i.e., assay solutions with different concentrations of the assayed MMP inhibitory compound in 1% DMSO. The experiment controls contained the same amount of Buffer A/DMSO as the assayed sample, but contained no inhibitor.
# as §3, §4
# Human recombinant MMP-13 = molecular target: T3, Human recombinant MMP-13 (Homo sapiens, UniProt P45452); assay: In vitro MMP inhibition assay, MMP-13 (fluorogenic peptide substrate cleavage, Ki); details: human MMP-13, full length (FL); read-out: hMMP Ki 13/FL
# T3 construct: made in house; host or cells: baculovirus expression (insect cells)
# Procedure: as §1, §2
# The MMP-13 may be obtained as a proenzyme from a full-length cDNA clone using baculovirus expression, as described by V. A. Luckow, “Insect Cell Expression Technology,” Protein Engineering: Principles and Practice, pp. 183-218 (edited by J. L. Cleland et al., Wiley-Liss, Inc., 1996). The expressed proenzyme was first purified over a heparin agarose column, and then over a chelating zinc chloride column. Further details on baculovirus expression systems may be found in, for example, Luckow et al., J. Virol., 67, 4566-79 (1993). See also O'Reilly et al, Baculovirus Expression Vectors: A Laboratory Manual (W. H. Freeman and Co., New York, N.Y., 1992). See also King et al., The Baculovirus Expression System: A Laboratory Guide (Chapman & Hall, London, England, 1992).
# All full length MMPs were activated using 4-aminophenylmercuric acetate (“APMA”, Sigma Chemical, St. Louis, Mo.) or trypsin. MMP-9 also was activated using human recombinant MMP-3 following standard cloning and purification techniques.
# as §6, §7, §3
# The inhibitors are analyzed using a single low enzyme concentration with a single substrate concentration fixed at or below the Km. This protocol is a modification of method by Knight et al., FEBS Lett., 296(3), 263-266 (1992). Apparent inhibitory constants are determined by non-linear regression of reaction velocity as a function of inhibitor and enzyme concentration using Morrison's equation, as described by Kuzmic, Anal. Biochem. 286, 45-50 (2000). […]
# Human recombinant MMP-14 = molecular target: T4, Human recombinant MMP-14 (Homo sapiens, UniProt P50281); assay: In vitro MMP inhibition assay, MMP-14 catalytic domain (fluorogenic peptide substrate cleavage, Ki); details: human MMP-14, catalytic domain (CD); read-out: hMMP Ki 14/CD
# T4 construct: The MMP-14 cDNA may be used to express the catalytic domain enzyme in E. coli inclusion bodies; made in house
# Procedure: as §1, §2
# The MMP-14 cDNA may be used to express the catalytic domain enzyme in E. coli inclusion bodies. Then the enzyme is solubilized in urea, purified on a preparative […] reverse phase HPLC column, and refolded in the presence of zinc acetate and purified for use.
# as §6, §7, §3
# as §4, with “Since the substrate concentration was chosen to be at or below the Km, the apparent Ki's from this analysis were reported as Ki's without correction for the influence of substrate.” left out
# Human recombinant MMP-15 = molecular target: T5, Human recombinant MMP-15 (Homo sapiens, UniProt P51511); assay: In vitro MMP inhibition assay, MMP-15 catalytic domain (fluorogenic peptide substrate cleavage, Ki); details: human MMP-15, catalytic domain (CD); read-out: hMMP Ki 15/CD
# T5 construct: The catalytic domain of MMP-12 and MMP-15 enzymes were purchased commercially for these assays; purchased
# Procedure: as §1, §2, §5, §6, §7, §3, §4
# T5 sequence (P51511 132-304 limits assumed): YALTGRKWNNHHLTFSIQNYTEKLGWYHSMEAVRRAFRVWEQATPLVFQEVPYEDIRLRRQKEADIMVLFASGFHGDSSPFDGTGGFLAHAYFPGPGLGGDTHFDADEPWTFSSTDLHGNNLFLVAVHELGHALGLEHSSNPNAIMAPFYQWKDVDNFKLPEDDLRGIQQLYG
# T1 sequence (P08254 100-272 limits assumed): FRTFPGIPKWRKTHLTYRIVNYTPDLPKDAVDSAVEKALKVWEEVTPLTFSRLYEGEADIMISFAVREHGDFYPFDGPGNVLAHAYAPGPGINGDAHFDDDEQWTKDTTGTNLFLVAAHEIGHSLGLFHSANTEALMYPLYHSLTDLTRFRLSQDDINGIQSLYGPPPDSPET
# T2 sequence (P39900 106-263 limits assumed): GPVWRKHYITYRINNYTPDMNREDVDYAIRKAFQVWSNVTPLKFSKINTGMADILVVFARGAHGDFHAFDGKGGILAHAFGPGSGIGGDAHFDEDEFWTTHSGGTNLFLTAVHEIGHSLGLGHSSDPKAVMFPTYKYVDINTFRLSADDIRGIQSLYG
Ki [1],Ki (Human recombinant MMP-12),Ki (Human recombinant MMP-13),Ki (Human recombinant MMP-14),Ki (Human recombinant MMP-15),Compound
1640 nM,> 10000 nM,11.4 nM,> 10000 nM,> 10000 nM,"COc1cccc(CNC(=O)c2nc3scc(COC[C@@H]4CO[C@@H](CO)CO4)c3c(=O)[nH]2)c1 (relative stereo) [Example 7, N-(3-Methoxybenzyl)-5-(((trans-5-(hydroxymethyl)-1,4-dioxan-2-yl)methoxy)methyl)-4-oxo-3,4-dihydrothieno[2,3-d]pyrimidine-2-carboxamide]"
1350 nM,> 10000 nM,0.88 nM,> 10000 nM,> 10000 nM,"COc1cc(CNC(=O)c2nc3scc(COC[C@H]4CC[C@H](CO)CC4)c3c(=O)[nH]2)ccc1F [Example 9, N-(4-Fluoro-3-methoxybenzyl)-5-(((trans-4-(hydroxymethyl)cyclohexyl)methoxy)methyl)-4-oxo-3,4-dihydrothieno[2,3-d]pyrimidine-2-carboxamide]"
